Data taken from PMC12222587, “A2B adenosine receptor-triggered intracellular calcium mobilization: Cell type-dependent involvement of Gi, Gq, Gs proteins and protein kinase C” (Purinergic Signalling, 2025).
“Also recorded” adds a separate entry of the source.

What was measured:
A2BAR = target: T1, A2BAR (Homo sapiens, UniProt P29275); test: Intracellular calcium mobilization, T24 bladder cancer cells, native A2BAR (NECA); type: cell-based
T1 sequence (P29275 1-332): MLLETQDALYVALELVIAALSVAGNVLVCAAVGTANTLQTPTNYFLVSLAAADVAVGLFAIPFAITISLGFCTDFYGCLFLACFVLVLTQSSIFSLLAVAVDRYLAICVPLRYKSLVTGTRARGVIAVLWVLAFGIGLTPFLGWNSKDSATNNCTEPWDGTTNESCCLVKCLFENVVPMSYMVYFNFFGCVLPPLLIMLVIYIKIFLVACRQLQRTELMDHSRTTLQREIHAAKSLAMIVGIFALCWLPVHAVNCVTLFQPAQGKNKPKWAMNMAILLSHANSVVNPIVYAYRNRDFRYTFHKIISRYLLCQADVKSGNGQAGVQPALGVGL

β2-adrenergic receptor = β2-adrenergic receptor (Homo sapiens, UniProt P07550); test: Intracellular calcium mobilization, T24 bladder cancer cells, endogenous β2-adrenergic receptor; type: cell-based
HMC-1 cells = conditions: cited from earlier work
[1] = tested on: human erythroleukemia cells; conditions: cited from earlier work

Cholera toxin [CTX]
Effect on native A2BAR (NECA)-triggered calcium mobilization (A2BAR): CTX sensitive (5), Variable, depending on cell type^b, c | Effect on formoterol-induced calcium mobilization (β2-adrenergic receptor) (β2-adrenergic receptor): effect larger than it was on the NECA-induced Ca^2+ response; also recorded: CTX sensitive (6) | Sensitivity of NECA-induced Ca2+ increase to toxin (HMC-1 cells): ^b NECA-induced Ca^2+ increase in HMC-1 cells was insensitive to CTX and PTX, Feoktistov et al., 1995 [30] | Sensitivity of NECA-induced Ca2+ increase to toxin [1]: ^c NECA-induced Ca^2+ increase in human erythroleukemia cells was sensitive to CTX, Feoktistov et al., 1994 [31]
